Test results as given in patent US20250000942A1, “PEPTIDES AND METHODS OF TRANSPLANTATION AND RESTORATIVE ORGAN FUNCTION” (Prince Biotech, LLC, priority 2017, published 2025).

Experiments:
Type in all cases: cell-based, human
JEG-3 cells [1] = assay: Influence of PIF and P4 on expression of HLA class I molecules (flow cytometry, Western blotting, surface antigen quantification); conditions: 1 μg/ml P4, 24 hours
Protocol: The cells were then incubated with the HLA-G specific mouse monoclonal antibody MEM-G9m followed by incubation with Alexa Fluor 488 conjugated antibody preparations. Fluorescence was detected by using BD Accuri C6 flow cytometer. The data was analyzed using a Flowing Software V2.5.1. […] Error bar indicates standard deviation from the mean. Statistical analysis was performed with SigmaPlot software. One way Analysis of Variance was employed to test the significance of differences among groups.
The collected cells were further tested for expression for class I HLA molecules by using specific monoclonal antibodies.
Treated and untreated JEG-3 cells, following exposure to test agents were detached, counted, and pelleted as described previously [14]. […] To quantify the final concentration of the proteins we used the Bradford assay following the previously described protocol with some modifications [15]. […] Five μl of each protein sample was then diluted 1:1 with PBS and incubated with the reading reagent at room temperature for 5 min. Finally, the protein concentration was determined using a spectrophotometer, extrapolating each absorbance value over the previously created standard curve. […] A pre-stained standard protein marker (Li-Cor Bioscience) was also loaded onto the gel and run parallel to the protein samples to be analyzed. […]

JEG-3 cells [2] = assay: Effect of PIF and P4 on JEG-3 proteome (2-DE, spot analysis, mass spectrometry)
Protocol: Cell lysates and their protein concentration were prepared and assessed as previously described Frozen cell pellets were dissolved in hot lysis buffer (1% SDS, 100 mM Tris-HCl), and sonicated. Five percent of 2-mercaptoethanol was added. Samples were then dissolved in solubilisation buffer (8 M urea, 2.5 M thiourea, 4% 3-[(3-cholamidopropyl) dimethylammonio]-1-propanesuflate, 50 mM DTT, 24 mM spermine tetrachloride) at room temperature for 1 h. The samples were centrifuged at 12000×g for 30 min. To concentrate the protein samples, acetone precipitation was used. Once the supernatant was discarded the protein pellets were washed with a mixture of ice-cold methanol-chloroform and re-suspended in isoelectric focusing buffer (IEF) (8 M urea, 2.5 M thiourea, 4% 3-[(3-cholamidopropyl) dimethylammonio]-1-propanesuflate).
The IPG strips were then focused using an IPGphor system (BioRad, USA). Rehydrated filter wicks were placed between the electrodes and the IPG strip. […] After IEF, strips were rinsed in deionized water, and stored at −80° C. until the second dimensional […].
For second dimensional […], IPG strips were incubated in equilibrium buffer 1 [6 M/l urea, 20% w/v glycerol, 4% w/v SDS, 0.375 M/l Tris-HCL (pH 8.8), 5% 2-mercaptoethanol] for 15 min at room temperature. […] Strips were then rinsed in electrophoresis buffer (60.57 g Tris base, 288.27 g glycine, 20 g SDS, double distilled H2O up to 20 L). The second dimensional analysis was carried out using a Criterion gel system (Bio-Rad). Each strip was placed into the well of a 12% SDS-PAGE gel (Bio-Rad) and sealed with agarosc solution. Electrophoresis was carried out at 50 V for 30 min and following this at 150 V for 4-5 h. The gel was then fixed overnight in fixing solution (50% methanol, 5% acetic acid, 45% water), and stained using the silver staining protocol.
The gels were scanned and analyzed using SameSpots analysis software (Nonlinear dynamics Ltd). Digitized images from 12 silver-stained gels were analyzed for spot detection and quantification. Image analysis included spot detection, editing, background subtraction and spot matching. A master image was then created, and all spots in the other gels were matched to this master image both manually and digitally. The size of a protein, which approximates the volume of the spot, was calculated by using the software. Spots identified as differentially present were excised and analyzed using mass spectrometry (MS) analysis.
Identified spots were manually excised from the 2-DE gels using a disposable sterile scalpel spot cutter and washed in molecular biology grade water. Each spot was then subjected to in gel digestion alkylation, along with tryptic digestion so as to yield peptide fragments for MS analysis following previously described protocols.
Peptide digests were subjected to MS analysis at the sub-picomole level through the use of a matrix assisted laser desorption ionization-time of flight (MALDI-TOF MS) so as to generate peptide mass fingerprinting (PMF). The MALDI-TOF analysis was carried out using a Bruker Daltonics Reflex IV instrument using a linear mode with a laser power attenuation setting at 30, as described previously.
The expression data were pre-processed by mean-centering (by division and medians), and over median normalized data. A heatmap was generated via hierarchical clustering for examining protein expression and treatment (http://cran.r-project.org). The generation of a heatmap for median centered protein expression data with horizontal hierarchical clustering of different proteins utilized the median linkage agglomeration method and vertical hierarchical clustering of treatment conditions, using complete linkage agglomeration. A correlation distance metric was used for clustering data.

JEG-3 cells [3] = assay: ELISA for cytokine secretion by JEG-3 cells; conditions: JEG-3, serum-free media, 24 hours, P4 1 μg/ml
Protocol: At the end of the experiments the supernatant was collected and analyzed for cytokine levels. The concentrations of tumor necrosis factor alpha (TNF-a), interleukin (IL)-1, IL-8, IL-10, interferon gamma (IFN-γ), transforming growth factor beta 1 (TGF-[…]) and granulocyte macrophage colony-stimulating factor (GM-CSF) were measured using ELISA kits (eBioscience), following the manufacturer's instructions.

[4] = P4 1 μg/ml or PIF 200 nM, 24 hours

**Q.** How did the “levels of HLA-G, -E, -F and -C” value (JEG-3 cells [1]) turn out when `CC(=O)[C@H]1CC[C@H]2[C@@H]3CCC4=CC(=O)CC[C@]4(C)[C@H]3CC[C@]12C` [P4, Progesterone] was run?
**A.** increased levels of HLA-G, -E, -F and -C

**Q.** And the “Average Normalized Volumes, ATP5B (spot 71)” value (JEG-3 cells [2]; [4])?
**A.** 283.644

**Q.** And the “Average Normalized Volumes, BBB (spot 92)” value (JEG-3 cells [2]; [4])?
**A.** 544.421

**Q.** What about the “Average Normalized Volumes, CD59 (spot 51)” value (JEG-3 cells [2]; [4]) of the same compound?
**A.** 388.079

**Q.** And the “Average Normalized Volumes, CLIC3 (spot 69)” value (JEG-3 cells [2]; [4])?
**A.** 220.958

**Q.** And the “Average Normalized Volumes, DCBD2 (spot 67)” value (JEG-3 cells [2]; [4])?
**A.** 413.865

**Q.** What about the “Average Normalized Volumes, EGFR (spot 30)” value (JEG-3 cells [2]; [4]) of the same compound?
**A.** 313.949

**Q.** And the “Average Normalized Volumes, FOXP3 (spot 98)” value (JEG-3 cells [2]; [4])?
**A.** 1035.457

**Q.** And the “Average Normalized Volumes, HLAG (spot 89)” value (JEG-3 cells [2]; [4])?
**A.** 961.078

**Q.** What about the “Average Normalized Volumes, HS74L (spot 8)” value (JEG-3 cells [2]; [4]) of the same compound?
**A.** 407.206

**Q.** What about the “Average Normalized Volumes, HSP71 (spot 2)” value (JEG-3 cells [2]; [4]) of the same compound?
**A.** 328.658

**Q.** What about the “Average Normalized Volumes, LMNA (spot 34)” value (JEG-3 cells [2]; [4]) of the same compound?
**A.** 276.712

**Q.** And the “Average Normalized Volumes, PDIA3 (spot 24)” value (JEG-3 cells [2]; [4])?
**A.** 425.280

**Q.** What about the “Average Normalized Volumes, PRDX2 (spot 66)” value (JEG-3 cells [2]; [4]) of the same compound?
**A.** 144.399

**Q.** What about the “Average Normalized Volumes, PRGR (spot 55)” value (JEG-3 cells [2]; [4]) of the same compound?
**A.** 277.710

**Q.** And the “Average Normalized Volumes, ZSC21 / TTP (spot 32)” value (JEG-3 cells [2]; [4])?
**A.** 123.015

**Q.** And the “number of differentially expressed proteins up-regulated (of 19)” value (JEG-3 cells [2]; hierarchical clustering, vs control cells)?
**A.** five

**Q.** What about the IFN-γ secretion (JEG-3 cells [3]) of the same compound?
**A.** 10 pg/mL

**Q.** And the TNF-α secretion (JEG-3 cells [3])?
**A.** 1 pg/mL

**Q.** What about the GM-CSF secretion (JEG-3 cells [3]; PIF 200 nM, mean ± SEM) of the same compound?
**A.** 310 ± 36.3 pg/mL

**Q.** And the IL-1β secretion (JEG-3 cells [3]; PIF 200 nM, mean ± SEM)?
**A.** 334 ± 27.7 pg/mL

**Q.** And the IL-8 secretion (JEG-3 cells [3]; PIF 200 nM, mean ± SEM)?
**A.** 685 ± 58.2 pg/mL

**Q.** And the TGF-β1 secretion (JEG-3 cells [3]; PIF 200 nM, mean ± SEM)?
**A.** 398 ± 32.4 pg/mL
